In publication PMC7600351 (Pharmaceutics, 2020):
Read-outs that look alike come from different tables or passages of the source.

How the values were obtained:
ABCG2 = test: Induction assay in LS180 cells, ABCG2 mRNA (real-time RT-PCR); format: cell-based, human; conditions: LS180, 4 days; hydroxychloroquine 1, 2, 10, 20 µM; rifampicin 20 µM; omeprazole 150 µM
Procedure: (§1) For induction experiments, the human colon adenocarcinoma cell line LS180 (available at ATCC, Manassas, VA, USA) was used. This cell line is an established model for investigating gene inductions mediated by PXR or AhR [25, 28]. Cells were cultured under standard cell culture conditions in DMEM supplemented with 10% FCS, 100 U/mL penicillin, 100 µg/mL streptomycin sulphate, 0.1 mM non-essential amino acids, and 2 mM glutamine.
(§2) All media were adjusted to the DMSO content of the solution with the highest DMSO content in the respective experiment (0.1%). The experiment was conducted in quintuplicate. RNA was extracted immediately after harvesting the cells and stored at −80 °C until processing.
(§3) RNA was isolated using the GenElute™ Mammalian Total RNA Miniprep Kit, and cDNA was synthesized with the RevertAid™ H Minus First Strand cDNA Synthesis Kit according to the manufacturer’s instructions. mRNA expression was quantified by real-time RT-PCR with the LightCycler® 480 (Roche Applied Science, Mannheim, Germany) as described previously. […] Data were evaluated via calibrator-normalised relative quantification with efficiency correction using the LightCycler® 480 software version 1.5.1.62 (Roche Applied Science, Mannheim, Germany). Results were expressed as the target/reference ratio divided by the target/reference ratio of the calibrator. The results are therefore corrected for sample inhomogeneities and variance caused by detection. All samples were amplified in duplicate and the mean of the technical duplicate was used for further calculation.

ABCB1 = test: Induction assay in LS180 cells, ABCB1 mRNA (real-time RT-PCR); format: cell-based, human; conditions: LS180, 4 days; hydroxychloroquine 1, 2, 10, 20 µM; rifampicin 20 µM
Procedure: as §1, §2
as §3, with “The results are therefore corrected for sample inhomogeneities and variance caused by detection. All samples were amplified in duplicate and the mean of the technical duplicate was used for further calculation.” left out

OATP1B3 [1] = molecular target: T1, OATP1B3 (Homo sapiens, UniProt Q9NPD5); test: Flow cytometric OATP1B3 inhibition assay (8-FcA uptake, HEK-OATP1B3); format: cell-based
T1 construct: expressed in transfected cells; host or cells: HEK293 (HEK-OATP1B3)
Procedure: (§4) As cell models for human OATP1B1 and OATP1B3, HEK293, a human embryonic kidney cell line, stably transfected with OATP1B1 (HEK-OATP1B1), OATP1B3 (HEK-OATP1B3), or the empty control vector (HEK293-VC G418) were used. Cells were cultured under standard cell culture conditions with DMEM supplemented with 10% FCS, 2 mM glutamine, 100 U/mL penicillin, 100 µg/mL streptomycin sulphate, and 800 µg/mL G418. Inhibition of the OATPs was quantified by flow cytometry assessing the uptake of 8-FcA into HEK293 cells over-expressing the respective transporter after 10 min incubation and normalised to the control cell line as described previously. Intracellular fluorescence was quantified in a MACSQuant 10 Analyzer (Milteny, Bergisch-Gladbach, Germany) with the 488 nm laser for excitation and the 525 nm bandfilter for emission (FITC channel). Excluding debris, living cells were gated in the forward/sideward scatter by using the unstained sample. For each concentration (0.1–100 µM), 30,000 cells were measured and each experiment was performed in triplicate. Rifampicin (20 µM), a well-known inhibitor of OATP1B1 and OATP1B3, was used as a positive control.

OATP1B1 = molecular target: T2, OATP1B1 (Homo sapiens, UniProt Q9Y6L6); test: Flow cytometric OATP1B1 inhibition assay (8-FcA uptake, HEK-OATP1B1); format: cell-based
T2 construct: expressed in transfected cells; host or cells: HEK293 (HEK-OATP1B1)
Procedure: as §4

CYP1A2 = test: Induction assay in LS180 cells, CYP1A2 mRNA (real-time RT-PCR); conditions: LS180, 4 days; hydroxychloroquine 1, 2, 10, 20 µM; omeprazole 150 µM
Procedure: as §1, §2
as §3, with “The results are therefore corrected for sample inhomogeneities and variance caused by detection. All samples were amplified in duplicate and the mean of the technical duplicate was used for further calculation.” left out

CYP1A1 = test: Induction assay in LS180 cells, CYP1A1 mRNA (real-time RT-PCR); format: cell-based, human; conditions: LS180, 4 days; hydroxychloroquine 1, 2, 10, 20 µM; omeprazole 150 µM
Procedure: as §1, §2
as §3, with “The results are therefore corrected for sample inhomogeneities and variance caused by detection. All samples were amplified in duplicate and the mean of the technical duplicate was used for further calculation.” left out

all cell lines used = test: Cytotoxicity Detection Kit (LDH release); format: cell-based; conditions: up to 100 µM
Excerpt: The toxic effects of tested compounds can negatively influence transporter inhibition assays.

OATP1B3 [2] = conditions: at 10 µM; cited from earlier work
LS180 cells = test: Growth inhibition in LS180 cells (crystal violet); format: cell-based; conditions: Homo sapiens
Procedure: Proliferation was quantified by crystal violet staining and the assays were conducted as described previously. Each concentration was tested in octuplet and each experiment was performed in quadruplicate.

OATP2B1 [3] = molecular target: T3, OATP2B1 (Homo sapiens, UniProt O94956); test: Flow cytometric OATP2B1 inhibition assay (DBF uptake, HEK293 with tetracycline-induced OATP2B1); format: cell-based
T3 construct: expressed in transfected cells; host or cells: HEK293, tetracycline-induced OATP2B1 expression
Procedure: As a cell model for human OATP2B1, HEK293 cells over-expressing OATP2B1 in the presence of tetracycline were used. Cells were cultured under standard cell culture conditions with DMEM/Ham’s F12 medium supplemented with 10% FCS, 4 mM glutamine, 100 U/mL penicillin, and 100 µg/mL streptomycin sulphate. To generate OATP2B1 over-expression, cells were treated 72 h before the assay with 1 µg/mL tetracycline. […] Excluding debris, living cells were gated in the forward/sideward scatter by using the unstained sample. […] Uptake in cells with tetracycline induction was normalised to the uptake in cells without induction. Naringin (1 mM) was used as a positive control.

[4] = test system: organic cation/carnitine transporters (OCTNs); conditions: cited from earlier work
P-gp = test system: P-gp; parameters: method as in PMID 7113754; conditions: two case reports; cited from earlier work
LLC-PK1 cells = test: Growth inhibition assay (crystal violet), parental LLC-PK1; format: cell-based; conditions: Sus scrofa
Procedure: (§5) Cell lines with overexpression of an efflux transporter are more resistant to the anti-proliferative effects of a compound if this compound is a substrate of the respective transporter and can be extruded from the cell. […] Reversal of drug resistance was tested by using the P-gp-specific inhibitor LY335979 (zosuquidar) or the BCRP-specific inhibitor FTC. The assay using crystal violet staining was conducted and analysed as described previously. Each experiment was performed at least in quadruplicate with n = 8 wells for each concentration (0.1–500 µM).

human P-gp = molecular target: T4, human P-gp (Homo sapiens, UniProt P08183); test: P-gp inhibition, calcein-AM uptake assay in L-MDR1 vs LLC-PK1 cells; format: cell-based; conditions: L-MDR1 cells and parental LLC-PK1; 0.01–100 µM; 0.5 µM calcein-AM
T4 construct: expressed in transfected cells; host or cells: L-MDR1 (derived from porcine LLC-PK1)
Procedure: (§6) P-gp inhibition was tested with a calcein assay as published previously using two different cell systems: the L-MDR1 cell line that over-expresses human P-gp and the corresponding parental cell line LLC-PK1 [19] and the P-gp over-expressing murine monocytic cell line P388/dx and its parental counterpart cell line P388 as a control. LLC-PK1 and L-MDR1 cells were cultured under standard cell culture conditions with medium M199 supplemented with 10% FCS, 2 mM glutamine, 100 U/mL penicillin, and 100 µg/mL streptomycin sulphate. […] One day before using the cells for the calcein assay, both cell lines were fed with vincristine-free culture medium. […] One day before the inhibition assay, both P388 cell lines were set to the doxorubicin-free culture medium.
(§7) In brief, the assay was performed in 96-well plates with a final calcein-AM concentration of 0.5 µM for the LLC cell system and 1 µM for the P388 cell system. Cells were washed with pre-warmed HBSS supplemented with 10 mM HEPES (HHBSS) and pre-incubated with this buffer for 30 min and subsequently with the test compound for 10 min (LLC cell system) or 15 min (P388 cell system). After pre-incubation, calcein-AM was added and the cells were incubated for 60 min (LLC system) or 30 min (P388 cell system) at 37 °C on a rotary shaker (Noctua, Vienna, Austria). […]

[5] = test system: organic anion transporters (OATs); conditions: cited from earlier work
OATP2B1 [6] = conditions: at 10 µM; cited from earlier work
MDCKII cells = test: Growth inhibition assay (crystal violet), parental MDCKII; format: cell-based; conditions: Canis lupus familiaris, MDCK-II
Procedure: as §5

[7] = test system: BCRP (substrate test by growth inhibition); test: Growth inhibition assay (crystal violet), BCRP over-expressing MDCKII-BCRP; format: cell-based; conditions: dog, MDCKII-BCRP cells (MDCKII over-expressing human BCRP)
Procedure: as §5

[8] = test system: MDCKII-BCRP cells (over-expressing human BCRP); test: as above; format: cell-based; conditions: growth inhibition MDCKII-BCRP vs MDCKII with and without FTC
Procedure: as §5

P-gp (P388/dx cells) = test: P-gp inhibition, calcein-AM uptake assay in P388/dx vs P388 cells; format: cell-based, murine; conditions: not in parental P388, 1 µM calcein-AM, IC50 could not be calculated
Procedure: as §6, §7

CYP3A4 = test system: CYP3A4
Procedure: as §1, §2
as §3, with “The results are therefore corrected for sample inhomogeneities and variance caused by detection. All samples were amplified in duplicate and the mean of the technical duplicate was used for further calculation.” left out

[9] = cited from earlier work
OATP1A2 = conditions: uptake of all-trans-retinol in vitro; cited from earlier work
[10] = test system: L-MDR1 cells (over-expression of human P-gp); test: Growth inhibition assay (crystal violet), P-gp over-expressing L-MDR1; format: cell-based; conditions: growth inhibition L-MDR1 vs LLC-PK1 with and without LY335979
Procedure: as §5

[11] = test system: P-gp (substrate test by growth inhibition); test: as above; format: cell-based; conditions: pig, L-MDR1 cells (LLC-PK1 over-expressing human P-gp)
Procedure: as §5

[12] = test system: organic cation transporters (OCTs); conditions: cited from earlier work
[13] = 0.1–100 µM, 8-FcA uptake, 10 min

T3 sequence (O94956 whole entry): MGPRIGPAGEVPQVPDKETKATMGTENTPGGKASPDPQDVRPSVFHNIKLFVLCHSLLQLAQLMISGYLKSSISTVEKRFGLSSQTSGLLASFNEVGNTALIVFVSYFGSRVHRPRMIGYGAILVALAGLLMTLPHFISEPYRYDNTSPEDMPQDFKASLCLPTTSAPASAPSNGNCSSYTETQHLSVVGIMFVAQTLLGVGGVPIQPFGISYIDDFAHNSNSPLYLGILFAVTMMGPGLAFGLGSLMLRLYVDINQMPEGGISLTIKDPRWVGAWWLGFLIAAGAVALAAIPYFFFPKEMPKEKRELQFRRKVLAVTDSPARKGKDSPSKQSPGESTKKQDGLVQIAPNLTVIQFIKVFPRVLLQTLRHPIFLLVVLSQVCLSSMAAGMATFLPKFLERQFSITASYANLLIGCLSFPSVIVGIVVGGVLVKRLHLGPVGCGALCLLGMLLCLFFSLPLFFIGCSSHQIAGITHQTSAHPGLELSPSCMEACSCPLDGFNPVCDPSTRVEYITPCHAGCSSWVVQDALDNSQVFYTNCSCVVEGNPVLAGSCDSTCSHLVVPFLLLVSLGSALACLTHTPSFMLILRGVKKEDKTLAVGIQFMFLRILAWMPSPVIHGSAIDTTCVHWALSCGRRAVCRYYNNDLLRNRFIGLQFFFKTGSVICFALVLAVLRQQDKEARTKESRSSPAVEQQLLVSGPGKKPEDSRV
T2 sequence (Q9Y6L6 whole entry): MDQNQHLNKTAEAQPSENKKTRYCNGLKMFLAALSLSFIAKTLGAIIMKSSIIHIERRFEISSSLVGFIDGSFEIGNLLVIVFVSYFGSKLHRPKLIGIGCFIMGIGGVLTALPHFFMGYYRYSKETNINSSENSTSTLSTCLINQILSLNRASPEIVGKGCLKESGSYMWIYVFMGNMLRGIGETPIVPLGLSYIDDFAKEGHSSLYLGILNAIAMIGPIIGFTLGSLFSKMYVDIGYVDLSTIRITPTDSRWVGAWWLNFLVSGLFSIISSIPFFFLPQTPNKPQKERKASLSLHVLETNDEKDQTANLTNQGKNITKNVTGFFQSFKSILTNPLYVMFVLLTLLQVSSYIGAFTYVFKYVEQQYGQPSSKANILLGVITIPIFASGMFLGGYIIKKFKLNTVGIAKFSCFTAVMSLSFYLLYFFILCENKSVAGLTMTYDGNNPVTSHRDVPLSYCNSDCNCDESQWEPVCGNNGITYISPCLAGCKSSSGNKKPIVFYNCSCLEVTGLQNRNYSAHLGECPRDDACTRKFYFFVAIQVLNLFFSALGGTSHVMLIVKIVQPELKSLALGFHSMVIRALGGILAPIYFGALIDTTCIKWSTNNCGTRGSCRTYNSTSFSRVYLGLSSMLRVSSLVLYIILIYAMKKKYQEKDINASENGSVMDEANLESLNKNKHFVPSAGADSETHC
T1 sequence (Q9NPD5 whole entry): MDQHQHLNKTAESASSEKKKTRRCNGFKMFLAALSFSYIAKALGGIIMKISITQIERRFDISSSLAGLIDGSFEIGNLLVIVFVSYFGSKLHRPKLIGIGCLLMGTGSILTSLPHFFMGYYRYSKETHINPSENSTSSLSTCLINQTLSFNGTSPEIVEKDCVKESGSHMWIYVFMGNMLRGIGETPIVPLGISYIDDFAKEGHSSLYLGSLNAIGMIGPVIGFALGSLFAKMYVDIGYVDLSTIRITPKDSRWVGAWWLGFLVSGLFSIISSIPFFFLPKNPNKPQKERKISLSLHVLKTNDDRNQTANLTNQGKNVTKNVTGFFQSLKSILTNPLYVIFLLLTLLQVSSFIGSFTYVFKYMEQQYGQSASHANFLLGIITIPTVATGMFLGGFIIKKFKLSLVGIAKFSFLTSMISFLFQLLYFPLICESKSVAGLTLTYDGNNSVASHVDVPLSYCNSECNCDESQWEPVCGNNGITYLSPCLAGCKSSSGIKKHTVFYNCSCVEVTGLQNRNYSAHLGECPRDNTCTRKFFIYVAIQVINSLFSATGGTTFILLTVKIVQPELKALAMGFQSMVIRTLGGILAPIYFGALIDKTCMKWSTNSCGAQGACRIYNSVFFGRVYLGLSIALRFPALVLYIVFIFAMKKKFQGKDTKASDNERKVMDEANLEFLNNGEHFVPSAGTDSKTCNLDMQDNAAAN
T4 sequence (P08183 whole entry): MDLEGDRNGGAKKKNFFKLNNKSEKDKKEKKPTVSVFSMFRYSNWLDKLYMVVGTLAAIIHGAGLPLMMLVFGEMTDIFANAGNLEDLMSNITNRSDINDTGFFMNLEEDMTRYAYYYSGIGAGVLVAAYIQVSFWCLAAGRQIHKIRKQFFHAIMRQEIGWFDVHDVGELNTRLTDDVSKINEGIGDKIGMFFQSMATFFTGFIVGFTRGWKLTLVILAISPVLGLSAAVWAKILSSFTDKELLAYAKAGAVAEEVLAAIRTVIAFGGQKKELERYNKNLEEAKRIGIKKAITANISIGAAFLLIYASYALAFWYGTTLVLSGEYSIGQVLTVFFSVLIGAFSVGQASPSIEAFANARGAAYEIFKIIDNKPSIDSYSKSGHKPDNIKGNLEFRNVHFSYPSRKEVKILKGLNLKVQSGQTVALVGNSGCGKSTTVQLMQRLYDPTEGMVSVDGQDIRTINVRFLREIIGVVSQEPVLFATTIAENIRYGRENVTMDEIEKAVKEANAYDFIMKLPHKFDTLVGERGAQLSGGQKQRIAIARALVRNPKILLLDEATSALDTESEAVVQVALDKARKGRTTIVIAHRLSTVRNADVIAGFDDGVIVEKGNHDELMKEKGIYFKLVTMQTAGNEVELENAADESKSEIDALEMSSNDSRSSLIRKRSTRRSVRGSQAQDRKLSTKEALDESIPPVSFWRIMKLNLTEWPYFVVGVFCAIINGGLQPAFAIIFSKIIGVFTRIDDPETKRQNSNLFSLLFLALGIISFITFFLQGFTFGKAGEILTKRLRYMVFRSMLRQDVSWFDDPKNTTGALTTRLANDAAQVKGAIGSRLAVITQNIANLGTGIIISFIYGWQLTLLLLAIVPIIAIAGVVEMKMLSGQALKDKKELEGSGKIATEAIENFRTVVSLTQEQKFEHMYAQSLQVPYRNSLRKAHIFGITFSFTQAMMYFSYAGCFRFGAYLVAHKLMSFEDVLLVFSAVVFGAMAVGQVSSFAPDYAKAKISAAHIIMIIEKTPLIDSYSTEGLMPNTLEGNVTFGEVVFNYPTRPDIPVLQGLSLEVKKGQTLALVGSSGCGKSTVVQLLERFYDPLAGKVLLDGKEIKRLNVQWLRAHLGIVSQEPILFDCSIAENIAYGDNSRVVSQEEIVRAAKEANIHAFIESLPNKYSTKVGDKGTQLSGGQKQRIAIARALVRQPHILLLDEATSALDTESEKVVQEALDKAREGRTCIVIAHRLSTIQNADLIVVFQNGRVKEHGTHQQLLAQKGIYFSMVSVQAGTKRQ

Structure (SMILES): CO[C@H]1/C=C/O[C@@]2(C)Oc3c(C)c(O)c4c(O)c(c(/C=N/N5CCN(C)CC5)c(O)c4c3C2=O)NC(=O)/C(C)=C\C=C\[C@H](C)[C@H](O)[C@@H](C)[C@@H](O)[C@@H](C)[C@H](OC(C)=O)[C@@H]1C [rifampicin]
- ABCG2 mRNA expression (ABCG2): slightly
- ABCB1 mRNA expression (ABCB1): significantly up-regulated
- inhibition at 10 min, 20 µM (OATP1B3 [1]; human, HEK293 cells stably transfected with OATP1B3 (HEK-OATP1B3), probe 8-FcA, 20 µM, positive control): 90%
- inhibition at 10 min, 20 µM (OATP1B1; human, HEK293 cells stably transfected with OATP1B1 (HEK-OATP1B1), probe 8-FcA, 20 µM, positive control): 80%

Structure (SMILES): COc1ccc2[nH]c([S+]([O-])Cc3ncc(C)c(OC)c3C)nc2c1 (centres unmarked) [omeprazole]
- ABCG2 mRNA expression (ABCG2): significantly up-regulated
- CYP1A2 mRNA expression (CYP1A2): significantly up-regulated
- CYP1A1 mRNA expression (CYP1A1): significantly up-regulated

Structure (SMILES): CCN(CCO)CCCC(C)Nc1ccnc2cc(Cl)ccc12 (centres unmarked) [hydroxychloroquine]
- toxic effects (LDH release) (all cell lines used): no toxic effects
- OATP1B3 inhibition (OATP1B3 [2]): about 20%
- IC20 (LS180 cells): 22.5 ± 7.3 µM
- OATP2B1 inhibition (OATP2B1 [3]; 0.1–100 µM, 1 µM DBF uptake, 10 min): did not inhibit
- ABCG2 mRNA expression (ABCG2): no significant effect
- inhibition of organic cation/carnitine transporters (OCTNs) [4]: no inhibition
- effect on digoxin plasma concentrations during concurrent therapy (P-gp): increased plasma concentrations of digoxin
- CYP1A2 mRNA expression (CYP1A2): no significant effect
- IC50 (LLC-PK1 cells; LLC-PK1, LLC-PK1): 82 ± 10 µM
- IC50 (LLC-PK1 cells; LLC-PK1, LLC-PK1 + LY335979 (P-gp inhibitor)): 93 ± 2 µM
- effect on intracellular calcein fluorescence (P-gp inhibition) (human P-gp): did not affect intracellular calcein fluorescence
- inhibition of organic anion transporters (OATs) [5]: weak inhibition
- OATP2B1 inhibition (OATP2B1 [6]): about 20%
- IC50 (MDCKII cells): 89 ± 12 µM
- IC50 [7]: 88 ± 9 µM
- IC50 ([7]; with FTC, concentration not given, MDCKII-BCRP + FTC): 92 ± 5 µM
- BCRP substrate characteristics [8]: not transported by BCRP
- concentrations at which intracellular calcein fluorescence was increased (weak P-gp inhibition) (P-gp (P388/dx cells)): higher than 10 µM
- ABCB1 mRNA expression (ABCB1): no significant effect
- OATP1B3 inhibition (OATP1B3 [1]; [13]): did not inhibit
- CYP3A4 mRNA expression (CYP3A4): no significant effect
- OATP1B1 inhibition (OATP1B1; [13]): did not inhibit
- CYP1A1 mRNA expression (CYP1A1): no significant effect
- blood concentrations at steady-state ([9]; 400 mg/day): up to 9 µM
- volume of distribution ([9]; in blood): 5522 L
- volume of distribution ([9]; in plasma): 44,257 L
- concentration within lysosomes at steady-state (postulated) ([9]; lysosomes): 80 mM
- average intracellular concentration at steady-state (postulated) ([9]; tissue/cells): 1 mM
- OATP1A2 inhibition (OATP1A2): competitive inhibitor
- P-gp substrate characteristics [10]: substrate of the efflux transporter P-gp
- IC50 [11]: 427 ± 16 µM
- IC50 ([11]; with LY335979 (zosuquidar), concentration not given, L-MDR1 + LY335979 (P-gp inhibitor)): 90 ± 1 µM
- inhibition of organic cation transporters (OCTs) [12]: no inhibition

Structure (SMILES): C[C@@H]1O[C@@H](O[C@H]2[C@H](Oc3cc(O)c4c(c3)O[C@H](c3ccc(O)cc3)CC4=O)O[C@H](CO)[C@@H](O)[C@@H]2O)[C@H](O)[C@H](O)[C@H]1O [naringin]
- inhibition at 10 min, 1 mM (OATP2B1 [3]; human, probe DBF (1 µM), 1 mM, positive control): 70%
